Test system: SD rats (type 2 diabetes model)
Test: model for rat urine glucose excretion (glucose-oxidase method)
Format: in vivo
Details: type 2 diabetes model SD rats, 6 mg/kg intragastrically, glucose 2 g/kg at 0.5 h, urine collected 0-12 h
Description: The health SD rats are injected intraperitoneally with multiple low doses of streptozotocin for modeling (type 2 diabetes model) after feeding with high-fat and high-sucrose diet, and the content of blood glucose is measured before and after modeling. After the modeling successful, the rats for modeling are randomly divided (8 rats/group) into one blank group (administering the same volume of 0.5% CMC sodium solution) and several groups for compounds to be tested (6 mg/kg) according to the content of 24-hour urine glucose and the body weight. Rats in each group are fasted for 16 hours before experiment. The experimental rats are administered intragastrically with glucose (2 g/kg) at 0.5 h after intragastrical administration with compounds to be tested. The urine is collected at the time-period of 0-12 h after administration, and the urine glucose values are measured at each time-period by glucose-oxidase method.
The inhibiting activity of the cocrystal of I-D1-6 and L-proline on SGLT2 is measured by the model for rat urine glucose excretion.
The health SD rats are injected intraperitoneally with multiple low doses of streptozotocin for modeling (type 2 diabetes model) after feeding with high-fat and high-sucrose diet for one month, and the content of blood glucose is measured before and after modeling. After the modeling successful, the rats for modeling are randomly divided (8 rats/group) into one blank group (administering the same volume of 0.5% CMC sodium solution) and groups of tested compound (6 mg/kg) according to the content of 24-hour urine glucose and the body weight. Rats in each group are fasted for 16 hours before experiment. The experimental rats are administered intragastrically with the glucose (2 g/kg) at 0.5 h after intragastrical administration with the cocrystal of I-D1-6 and L-proline prepared in Example 138. The urine is collected at the time-period of 0-12 h after administration, and the urine glucose values are measured at each time-period by glucose-oxidase method.

Row | SMILES | Urine glucose excretion (mg/200 g body weight of the rat)
1 | CCc1ccc(Cc2c(Cl)ccc3c2COC32OC(CO)C(O)CC2O)cc1 (stereo not drawn) [drawing 246] | 712 mg/200 g body weight of the rat
2 | CCOc1ccc(Cc2cc(C3SC(CO)CC(O)C3O)c(OC)cc2C)cc1 (stereo not drawn) [drawing 247] | 677 mg/200 g body weight of the rat
3 | CCc1ccc(Cc2c(Cl)ccc3c2COC32CC(O)C(O)C(CO)O2)cc1 (stereo not drawn) [drawing 248] | 717 mg/200 g body weight of the rat
4 | CCOc1ccc(Cc2cc(C3CC(O)C(O)C(CO)S3)c(OC)cc2C)cc1 (stereo not drawn) [drawing 249] | 786 mg/200 g body weight of the rat
5 | CCOc1ccc(Cc2cc([C@]34OC[C@](C)(O3)[C@@H](O)[C@H](O)[C@H]4O)ccc2Cl)cc1 [drawing 250] | 665 mg/200 g body weight of the rat
6 | CCOc1ccc(Cc2cc([C@@]34OC[C@@](CO)(C[C@H](O)[C@H]3O)O4)ccc2Cl)cc1 [drawing 251] | 751 mg/200 g body weight of the rat
7 | CCOc1ccc(Cc2cc(C3OC(C)CC(O)C3O)ccc2Cl)cc1 (stereo not drawn) [drawing 252] | 765 mg/200 g body weight of the rat
8 | CC1OC(c2ccc(F)c(Cc3cc4ccccc4s3)c2)CC(O)C1O (stereo not drawn) [drawing 253] | 656 mg/200 g body weight of the rat
9 | CCc1ccc(Cc2c(Cl)ccc3c2COC32CC(O)CC(CO)O2)cc1 (stereo not drawn) [drawing 254] | 677 mg/200 g body weight of the rat
10 | CCc1ccc(Cc2c(Cl)ccc3c2COC32OC(C)C(O)C(O)C2O)cc1 (stereo not drawn) [drawing 255] | 755 mg/200 g body weight of the rat
11 | CCOc1ccc(Cc2cc(C3SC(CO)C(O)CC3O)c(OC)cc2C)cc1 (stereo not drawn) [drawing 256] | 766 mg/200 g body weight of the rat
12 | CCOc1ccc(Cc2cc(C3SC(CO)C(O)CC3O)c(OC)cc2C)cc1 (stereo not drawn) [drawing 257] | 728 mg/200 g body weight of the rat
13 | CCOc1ccc(Cc2cc(C3SC(C)C(O)C(O)C3O)c(OC)cc2C)cc1 (stereo not drawn) [drawing 258] | 698 mg/200 g body weight of the rat
14 | CCOc1ccc(Cc2cc([C@]34C[C@@H](O)[C@H](O)[C@](CO)(CO3)O4)ccc2Cl)cc1 [drawing 259] | 565 mg/200 g body weight of the rat
15 | CCOc1ccc(Cc2cc([C@]34OC[C@](CO)(O3)[C@@H](O)C[C@H]4O)ccc2Cl)cc1 [drawing 260] | 711 mg/200 g body weight of the rat
16 | Cc1ccc(C2OC(C)C(O)CC2O)cc1Cc1ccc(-c2ccc(F)cc2)s1 (stereo not drawn) [drawing 261] | 701 mg/200 g body weight of the rat
17 | OCC1CCC(O)C(c2ccc(Cl)c(Cc3ccc(O[C@H]4CCOC4)cc3)c2)O1 (stereo partly drawn) [drawing 262] | 721 mg/200 g body weight of the rat
18 | CCOc1ccc(Cc2cc(C3CCC(O)C(CO)S3)c(OC)cc2C)cc1 (stereo not drawn) [drawing 263] | 730 mg/200 g body weight of the rat

Test system: Mice;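 note: mice weighing 18–20 g, both sexes in equal proportion within each group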
Test: not given
Details: both, mouse, in vivo, 750 mg/kg, 1 week

Row | SMILES | Behaviors after administration with the compound to be tested (deaths) [dead]
19 | OCC1OC(c2ccc(F)c(Cc3cc4ccccc4s3)c2)C(O)C(O)C1O (stereo not drawn) [drawing 265] | 7
20 | CCOc1ccc(Cc2cc(C3SC(CO)C(O)C(O)C3O)c(OC)cc2C)cc1 (stereo not drawn) [drawing 277] | 10

Same assay, conditions: mice, 10 mice/group, single intragastric dose 750 mg/kg, within one week

Row | SMILES | Behaviors after administration with the compound to be tested (deaths) [dead]
21 | CCOc1ccc(Cc2cc(C3OC(CO)C(O)C(O)C3O)ccc2Cl)cc1 (stereo not drawn) [drawing 264] | 8
22 | CCc1ccc(Cc2c(Cl)ccc3c2COC32OC(CO)C(O)C(O)C2O)cc1 (stereo not drawn) [drawing 266] | 7
23 | CCOc1ccc(Cc2cc([C@]34OC[C@](CO)(O3)[C@@H](O)[C@H](O)[C@H]4O)ccc2Cl)cc1 [drawing 267] | 9
24 | CCCOc1ccc(Cc2cc(C3OC(C)C(O)C(O)C3O)ccc2Cl)cc1 (stereo not drawn) [drawing 268] | 6
25 | CCOc1ccc(Cc2cc(C3OC(CO)CC(O)C3O)ccc2Cl)cc1 (stereo not drawn) [drawing 269] | 2
26 | CCOc1ccc(Cc2cc(C3CC(O)C(O)C(CO)O3)ccc2Cl)cc1 (stereo not drawn) [drawing 270] | 2
27 | Cc1ccc(C2OC(CO)CC(O)C2O)cc1Cc1ccc(-c2ccc(F)cc2)s1 (stereo not drawn) [drawing 271] | 3
28 | Cc1ccc(C2CC(O)C(O)C(CO)O2)cc1Cc1ccc(-c2ccc(F)cc2)s1 (stereo not drawn) [drawing 272] | 5
29 | CC1OC(c2ccc(F)c(Cc3cc4ccccc4s3)c2)C(O)C(O)C1O (stereo not drawn) [drawing 273] | 2
30 | OCC1OC(c2ccc(Cl)c(Cc3ccc(O[C@H]4CCOC4)cc3)c2)C(O)CC1O (stereo partly drawn) [drawing 274] | 0
31 | Cc1ccc(C2OC(CO)C(O)C(O)C2O)cc1Cc1ccc(-c2ccc(F)cc2)s1 (stereo not drawn) [drawing 275] | 9
32 | OCC1OC(c2ccc(Cl)c(Cc3ccc(O[C@H]4CCOC4)cc3)c2)C(O)C(O)C1O (stereo partly drawn) [drawing 276] | 7
33 | COc1ccc(Cc2cc(C3OC(C)C(O)C(O)C3O)ccc2Cl)cc1 (stereo not drawn) [drawing 278] | 7
34 | CCOc1ccc(Cc2cc(C3OC(C)C(O)C(O)C3O)ccc2Cl)cc1 (stereo not drawn) [drawing 279] | 1
35 | CCOc1ccc(Cc2cc(C3OC(CO)C(O)CC3O)ccc2Cl)cc1 (stereo not drawn) [drawing 280] | 3
36 | Cc1ccc(C2OC(C)C(O)C(O)C2O)cc1Cc1ccc(-c2ccc(F)cc2)s1 (stereo not drawn) [drawing 281] | 4
37 | Cc1ccc(C2OC(CO)C(O)CC2O)cc1Cc1ccc(-c2ccc(F)cc2)s1 (stereo not drawn) [drawing 282] | 3
38 | OCC1OC(c2ccc(F)c(Cc3cc4ccccc4s3)c2)C(O)CC1O (stereo not drawn) [drawing 283] | 0
39 | OCC1CC(O)C(O)C(c2ccc(F)c(Cc3cc4ccccc4s3)c2)O1 (stereo not drawn) [drawing 284] | 1

Row | SMILES | Behaviors after administration with the compound to be tested (deaths) [dead]
40 | OCC1OC(c2ccc(F)c(Cc3cc4ccccc4s3)c2)CC(O)C1O (stereo not drawn) [drawing 285] | 3
41 | CC1OC(c2ccc(Cl)c(Cc3ccc(O[C@H]4CCOC4)cc3)c2)C(O)C(O)C1O (stereo partly drawn) [drawing 286] | 1
42 | OCC1OC(c2ccc(Cl)c(Cc3ccc(O[C@H]4CCOC4)cc3)c2)CC(O)C1O (stereo partly drawn) [drawing 287] | 2
43 | CCc1ccc(Cc2c(Cl)ccc3c2COC32OC(CO)C(O)CC2O)cc1 (stereo not drawn) [drawing 288] | 5
44 | CCOc1ccc(Cc2cc(C3SC(CO)CC(O)C3O)c(OC)cc2C)cc1 (stereo not drawn) [drawing 289] | 1
45 | CCc1ccc(Cc2c(Cl)ccc3c2COC32CC(O)C(O)C(CO)O2)cc1 (stereo not drawn) [drawing 290] | 2
46 | CCOc1ccc(Cc2cc(C3CC(O)C(O)C(CO)S3)c(OC)cc2C)cc1 (stereo not drawn) [drawing 291] | 3
47 | CCOc1ccc(Cc2cc([C@]34OC[C@](C)(O3)[C@@H](O)[C@H](O)[C@H]4O)ccc2Cl)cc1 [drawing 292] | 3
48 | CCOc1ccc(Cc2cc([C@@]34OC[C@@](CO)(C[C@H](O)[C@H]3O)O4)ccc2Cl)cc1 [drawing 293] | 4
49 | CCOc1ccc(Cc2cc(C3OC(C)CC(O)C3O)ccc2Cl)cc1 (stereo not drawn) [drawing 294] | 1
50 | CC1OC(c2ccc(F)c(Cc3cc4ccccc4s3)c2)CC(O)C1O (stereo not drawn) [drawing 295] | 1
51 | CCc1ccc(Cc2c(Cl)ccc3c2COC32CC(O)CC(CO)O2)cc1 (stereo not drawn) [drawing 296] | 1
52 | OCC1CC(O)C(O)C(c2ccc(Cl)c(Cc3ccc(O[C@H]4CCOC4)cc3)c2)O1 (stereo partly drawn) [drawing 297] | 2
53 | CCc1ccc(Cc2c(Cl)ccc3c2COC32OC(CO)CC(O)C2O)cc1 (stereo not drawn) [drawing 298] | 5
54 | CCc1ccc(Cc2c(Cl)ccc3c2COC32OC(C)C(O)C(O)C2O)cc1 (stereo not drawn) [drawing 299] | 3
55 | CCOc1ccc(Cc2cc(C3SC(CO)C(O)CC3O)c(OC)cc2C)cc1 (stereo not drawn) [drawing 300] | 0
56 | CCOc1ccc(Cc2cc(C3SC(CO)C(O)CC3O)c(OC)cc2C)cc1 (stereo not drawn) [drawing 301] | 3
57 | CCOc1ccc(Cc2cc(C3SC(C)C(O)C(O)C3O)c(OC)cc2C)cc1 (stereo not drawn) [drawing 302] | 4

From patent publication US9505734B2, “Phenyl C-glucoside derivative containing deoxyglucose structure, preparation method and use thereof” (Tianjin Institute of Pharmaceutical Research, priority 2012, dated 2016)
